Test results: patent publication US9932341B2, “Use of pyrazolopyrimidine derivatives for the treatment of PI3K-delta related disorders” (Incyte Corporation, priority 2013, dated 2018)
Structures can show the parent of a compound that is named as a salt.

Molecular target: PI3Kδ (p110δ/p85α) (Homo sapiens (Human), UniProt O00329)
Test: PI3Kδ Scintillation Proximity Assay (Example A3)
Type: biochemical
Settings: 20 μM ATP, 20 μM PIP2, 4 nM PI3Kδ, read-out: PI3Kδ SPA IC50
Protocol: [γ-^33P]ATP (10 mCi/mL) was purchased from PerkinElmer (Waltham, Mass.). […] PI3Kδ (p110δ/p85α) was purchased from Millipore (Bedford, Mass.). ATP, MgCl2, DTT, EDTA, MOPS and CHAPS were purchased from Sigma-Aldrich (St. Louis, Mo.). Wheat Germ Agglutinin (WGA) YSi SPA Scintillation Beads was purchased from GE healthcare life sciences (Piscataway, N.J.).
The kinase reaction was conducted in polystyrene 384-well matrix white plate from Thermo Fisher Scientific in a final volume of 25 μL. Inhibitors were first diluted serially in DMSO and added to the plate wells before the addition of other reaction components. The final concentration of DMSO in the assay was 0.5%. The PI3K assays were carried out at room temperature in 20 mM MOPS, pH 6.7, 10 mM MgCl2, 5 mM DTT and CHAPS 0.03%. Reactions were initiated by the addition of ATP, the final reaction mixture consisted of 20 μM PIP2, 20 μM ATP, 0.2 μCi [γ-^33P] ATP, 4 nM PI3Kδ. […] 25 mM EDTA, 400 μM ATP. The final concentration of SPA beads was 1.0 mg/mL. After the plate sealing, plates were shaken overnight at room temperature and centrifuged at 1800 rpm for 10 minutes, the radioactivity of the product was determined by scintillation counting on Topcount (PerkinElmer). IC50 determination was performed by fitting the curve of percent control activity versus the log of the inhibitor concentration using the GraphPad Prism 3.0 software.

PI3Kδ (p110δ/p85α), sequence (O00329 whole entry): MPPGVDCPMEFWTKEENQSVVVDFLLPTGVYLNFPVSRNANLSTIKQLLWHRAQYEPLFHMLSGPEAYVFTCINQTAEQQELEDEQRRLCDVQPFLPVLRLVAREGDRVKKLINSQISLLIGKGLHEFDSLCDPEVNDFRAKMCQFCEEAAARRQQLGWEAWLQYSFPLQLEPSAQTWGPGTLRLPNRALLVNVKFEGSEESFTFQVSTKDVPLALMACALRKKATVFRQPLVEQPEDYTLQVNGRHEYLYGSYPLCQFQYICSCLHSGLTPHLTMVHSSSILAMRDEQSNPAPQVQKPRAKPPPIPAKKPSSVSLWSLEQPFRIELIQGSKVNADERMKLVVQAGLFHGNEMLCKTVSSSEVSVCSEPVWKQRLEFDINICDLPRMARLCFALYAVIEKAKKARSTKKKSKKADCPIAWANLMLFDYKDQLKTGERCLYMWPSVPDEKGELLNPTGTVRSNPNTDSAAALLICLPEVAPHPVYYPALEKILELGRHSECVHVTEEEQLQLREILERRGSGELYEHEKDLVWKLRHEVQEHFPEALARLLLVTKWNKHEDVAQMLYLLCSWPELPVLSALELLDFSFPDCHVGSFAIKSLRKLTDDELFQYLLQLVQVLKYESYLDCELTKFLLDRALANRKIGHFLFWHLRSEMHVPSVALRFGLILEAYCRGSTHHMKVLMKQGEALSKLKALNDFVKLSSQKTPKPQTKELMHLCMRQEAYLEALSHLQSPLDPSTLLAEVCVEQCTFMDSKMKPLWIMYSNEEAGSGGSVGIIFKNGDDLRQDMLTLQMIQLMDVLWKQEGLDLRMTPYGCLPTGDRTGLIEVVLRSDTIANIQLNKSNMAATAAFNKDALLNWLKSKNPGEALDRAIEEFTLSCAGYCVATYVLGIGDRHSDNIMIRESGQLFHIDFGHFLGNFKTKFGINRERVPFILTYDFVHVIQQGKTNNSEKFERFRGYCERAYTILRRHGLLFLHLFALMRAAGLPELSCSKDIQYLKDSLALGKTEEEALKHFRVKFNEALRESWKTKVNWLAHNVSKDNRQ
PI3Kδ (p110δ/p85α), sequence (P27986 whole entry partner): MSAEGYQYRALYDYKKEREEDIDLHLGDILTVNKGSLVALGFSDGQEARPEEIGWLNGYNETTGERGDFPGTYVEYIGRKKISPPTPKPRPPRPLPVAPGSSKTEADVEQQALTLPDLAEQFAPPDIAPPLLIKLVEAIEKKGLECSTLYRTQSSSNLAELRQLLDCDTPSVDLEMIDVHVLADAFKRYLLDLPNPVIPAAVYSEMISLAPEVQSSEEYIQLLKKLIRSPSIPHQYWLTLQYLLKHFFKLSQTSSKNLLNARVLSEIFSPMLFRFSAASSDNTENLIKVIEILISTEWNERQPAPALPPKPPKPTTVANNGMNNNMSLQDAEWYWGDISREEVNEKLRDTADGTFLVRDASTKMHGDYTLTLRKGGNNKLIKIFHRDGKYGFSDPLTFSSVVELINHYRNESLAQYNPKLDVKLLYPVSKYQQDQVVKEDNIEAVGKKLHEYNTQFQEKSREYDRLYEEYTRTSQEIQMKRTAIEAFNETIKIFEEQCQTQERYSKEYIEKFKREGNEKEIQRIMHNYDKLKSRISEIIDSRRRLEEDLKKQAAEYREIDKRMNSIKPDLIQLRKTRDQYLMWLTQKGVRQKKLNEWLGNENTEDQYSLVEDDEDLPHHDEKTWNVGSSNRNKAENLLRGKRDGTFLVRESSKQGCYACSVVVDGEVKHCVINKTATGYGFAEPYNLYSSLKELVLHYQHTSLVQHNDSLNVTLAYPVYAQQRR

| SMILES | IC50 |
| --- | --- |
| COc1c(C(C)n2nc(C)c3c(N)ncnc32)cc(Cl)c(C#N)c1C1CNC1 (single isomer, unassigned) [Example 261, 4-[1-(4-Amino-3-methyl-1H-pyrazolo[3,4-d]pyrimidin-1-yl)ethyl]-2-azetidin-3-yl-6-chloro-3-methoxybenzonitrile] | < 0.01 µM |
| COc1c(C(C)n2nc(C)c3c(N)ncnc32)cc(Cl)c(C#N)c1C1CN(C)C1 (single isomer, unassigned) [Example 262, 4-[1-(4-Amino-3-methyl-1H-pyrazolo[3,4-d]pyrimidin-1-yl)ethyl]-6-chloro-3-methoxy-2-(1-methylazetidin-3-yl)benzonitrile] | < 0.01 µM |
| COc1c(C(C)n2nc(C)c3c(N)ncnc32)cc(Cl)c(C#N)c1C1CN(CCO)C1 (single isomer, unassigned) [Example 268, 4-[1-(4-Amino-3-methyl-1H-pyrazolo[3,4-d]pyrimidin-1-yl)ethyl]-6-chloro-2-[1-(2-hydroxyethyl)azetidin-3-yl]-3-methoxybenzo nitrile] | < 0.01 µM |
| COc1c(C(C)n2nc(C)c3c(N)ncnc32)cc(Cl)c(C#N)c1C1CN(S(C)(=O)=O)C1 (single isomer, unassigned) [Example 285, 4-[1-(4-Amino-3-methyl-1H-pyrazolo[3,4-d]pyrimidin-1-yl)ethyl]-6-chloro-3-methoxy-2-[1-(methylsulfonyl)azetidin-3-yl]benzonitrile] | < 0.01 µM |
| COC(=O)N1CC(c2c(C#N)c(Cl)cc(C(C)n3nc(C)c4c(N)ncnc43)c2OC)C1 (single isomer, unassigned) [Example 289, Methyl 3-{3-[1-(4-amino-3-methyl-1H-pyrazolo[3,4-d]pyrimidin-1-yl)ethyl]-5-chloro-6-cyano-2-methoxyphenyl}azetidine-1-carboxylate] | < 0.01 µM |
| COc1c(C(C)n2nc(C)c3c(N)ncnc32)cc(Cl)c(C#N)c1C1CN(C(=O)NC(C)(C)C)C1 (single isomer, unassigned) [Example 292, 3-{3-[1-(4-Amino-3-methyl-1H-pyrazolo[3,4-d]pyrimidin-1-yl)ethyl]-5-chloro-6-cyano-2-methoxyphenyl}-N-(tert-butyl)azetidine-1-carboxamide] | < 0.01 µM |
| COc1c(C(C)n2nc(C)c3c(N)ncnc32)cc(Cl)c(C#N)c1C1CN(C(N)=O)C1 (single isomer, unassigned) [Example 293, 3-{3-[1-(4-Amino-3-methyl-1H-pyrazolo[3,4-d]pyrimidin-1-yl)ethyl]-5-chloro-6-cyano-2-methoxyphenyl}azetidine-1-carboxamide] | < 0.01 µM |
| COc1c(C(C)n2nc(C)c3c(N)ncnc32)cc(Cl)c(C#N)c1C1CN(C(=O)N(C)C)C1 (single isomer, unassigned) [Example 296, 3-{3-[1-(4-Amino-3-methyl-1H-pyrazolo[3,4-d]pyrimidin-1-yl)ethyl]-5-chloro-6-cyano-2-methoxyphenyl}-N,N-dimethylazetidine-1-carboxamide] | < 0.01 µM |
| CCOc1c(C(C)n2cc(C)c3c(N)ncnc32)cc(Cl)c(C#N)c1C1CN(C(C)C)C1 (single isomer, unassigned) [Example 307, 4-[1-(4-Amino-5-methyl-7H-pyrrolo[2,3-d]pyrimidin-7-yl)ethyl]-6-chloro-3-ethoxy-2-(1-isopropylazetidin-3-yl)benzonitrile] | < 0.01 µM |
| CCOc1c(C(C)n2nc(C)c3c(N)ncnc32)cc(Cl)c(F)c1C1CNC(=O)C1 (single isomer, unassigned) [Example 346, 4-{3-[1-(4-amino-3-methyl-1H-pyrazolo[3,4-d]pyrimidin-1-yl)ethyl]-5-chloro-2-ethoxy-6-fluorophenyl}pyrrolidin-2-one] | < 0.01 µM |
| CCOc1c(C(C)n2nc(C)c3c(N)ncnc32)cc(Cl)c(F)c1C1COC(=O)N1 (single isomer, unassigned) [Example 353, 4-{3-[1-(4-amino-3-methyl-1H-pyrazolo[3,4-d]pyrimidin-1-yl)ethyl]-5-chloro-2-ethoxy-6-fluorophenyl}-1,3-oxazolidin-2-one] | > 0.5 µM |
| CCOc1c(C(C)n2nc(C)c3c(N)ncnc32)cc(Cl)c(F)c1C1COC(=O)N1 (single isomer, unassigned) [Example 354, 4-{3-[1-(4-amino-3-methyl-1H-pyrazolo[3,4-d]pyrimidin-1-yl)ethyl]-5-chloro-2-ethoxy-6-fluorophenyl}-1,3-oxazolidin-2-one] | < 0.01 µM |
| COc1c(C(C)n2nc(C)c3c(N)ncnc32)cc(Cl)c(C)c1C1CN(CC(C)O)C1 (stereo in doubt) [Example 102, (2S)-1-(3-{3-[1-(4-Amino-3-methyl-1H-pyrazolo[3,4-d]pyrimidin-1-yl)ethyl]-5-chloro-2-methoxy-6-methylphenyl}azetidin-1-yl)propan-2-ol] | < 0.01 µM |
| COc1c(C(C)n2nc(C)c3c(N)ncnc32)cc(Cl)c(F)c1C1CN(C[C@H](C)O)C1 (stereo partly drawn) [68 (1st peak), (2S)-1-(3-{3-[1-(4-Amino-3-methyl-1H-pyrazolo[3,4-d]pyrimidin-1-yl)ethyl]-5-chloro-6-fluoro-2-methoxyphenyl}azetidin-1-yl)propan-2-ol] | < 0.01 µM |
| CCC(=O)N1CC(c2c(C)c(Cl)cc(C(C)n3nc(C)c4c(N)ncnc43)c2OC)C1 (centres unmarked) [Example 3, 1-{1-[5-Chloro-2-methoxy-4-methyl-3-(1-propionylazetidin-3-yl)phenyl]ethyl}-3-methyl-1H-pyrazolo[3,4-d]pyrimidin-4-amine trifluoroacetate] | < 0.01 µM |
| CCC(C)N1CC(c2c(C)c(Cl)cc(C(C)n3nc(C)c4c(N)ncnc43)c2OC)C1 (centres unmarked) [Example 8, 1-{1-[3-(1-sec-butylazetidin-3-yl)-5-chloro-2-methoxy-4-methylphenyl]ethyl}-3-methyl-1H-pyrazolo[3,4-d]pyrimidin-4-amine] | < 0.01 µM |
| COc1c(C(C)n2nc(C)c3c(N)ncnc32)cc(Cl)c(C)c1-c1ccc(C(=O)N(C)C)nc1 (centres unmarked) [Example 11, 5-{3-[1-(4-Amino-3-methyl-1H-pyrazolo[3,4-d]pyrimidin-1-yl)ethyl]-5-chloro-2-methoxy-6-methylphenyl}-N,N-dimethylpyridine-2-carboxamide bis(trifluoroacetate)] | < 0.01 µM |
| CCOc1c(C(C)n2nc(C)c3c(N)ncnc32)cc(Cl)c(C)c1-c1ccc(C(=O)N(C)C)nc1 (centres unmarked) [Example 14, 5-{3-[1-(4-Amino-3-methyl-1H-pyrazolo[3,4-d]pyrimidin-1-yl)ethyl]-5-chloro-2-ethoxy-6-methylphenyl}-N,N-dimethylpyridine-2-carboxamide bis(trifluoroacetate)] | < 0.01 µM |

Other lines, results leading:

| IC50 | SMILES |
| --- | --- |
| < 0.01 µM | COc1c(C(C)n2nc(C)c3c(N)ncnc32)cc(Cl)c(C#N)c1C1CN(C(C)=O)C1 (single isomer, unassigned) [Example 281, 2-(1-Acetylazetidin-3-yl)-4-[1-(4-amino-3-methyl-1H-pyrazolo[3,4-d]pyrimidin-1-yl)ethyl]-6-chloro-3-methoxybenzonitrile] |
| < 0.01 µM | COc1c(C(C)n2nc(C)c3c(N)ncnc32)cc(C)c(C#N)c1C1CN(C[C@H](C)O)C1 (single isomer, unassigned) [Example 315] |
| 0.05 to 0.2 µM | CCOc1c(C(C)n2nc(C)c3c(N)ncnc32)cc(Cl)c(F)c1C1CNC(=O)O1 (single isomer, unassigned) [Example 355, 5-{3-[1-(4-amino-3-methyl-1H-pyrazolo[3,4-d]pyrimidin-1-yl)ethyl]-5-chloro-2-ethoxy-6-fluorophenyl}-1,3-oxazolidin-2-one] |
| 0.05 to 0.2 µM | CCOc1c(C(C)n2nc(C)c3c(N)ncnc32)cc(Cl)c(F)c1C1CNC(=O)O1 (single isomer, unassigned) [Example 356, 5-{3-[1-(4-amino-3-methyl-1H-pyrazolo[3,4-d]pyrimidin-1-yl)ethyl]-5-chloro-2-ethoxy-6-fluorophenyl}-1,3-oxazolidin-2-one] |
| < 0.01 µM | CCOc1c(C(C)n2nc(C)c3c(N)ncnc32)cc(Cl)c(F)c1C1CN(C(C)C)C1 (stereo not drawn) [139 (1st peak), 1-{1-[5-Chloro-2-ethoxy-4-fluoro-3-(1-isopropylazetidin-3-yl)phenyl]ethyl}-3-methyl-1H-pyrazolo[3,4-d]pyrimidin-4-amine] |
| < 0.01 µM | CCN1CC(c2c(Cl)c(Cl)cc(C(C)n3nc(C)c4c(N)ncnc43)c2OC)C1 (stereo not drawn) [298 (1st peak), 1-{1-[4,5-Dichloro-3-(1-ethylazetidin-3-yl)-2-methoxyphenyl]ethyl}-3-methyl-1H-pyrazolo[3,4-d]pyrimidin-4-amine] |
| < 0.01 µM | CCOc1c(C(C)n2nc(C)c3c(N)ncnc32)cc(Cl)c(C#N)c1C1CNC(=O)O1 (stereo not drawn) [323 (1st peak), 4-[1-(4-amino-3-methyl-1H-pyrazolo[3,4-d]pyrimidin-1-yl)ethyl]-6-chloro-3-ethoxy-2-(2-oxo-1,3-oxazolidin-5-yl)benzonitrile] |
| < 0.01 µM | COc1c(C(C)n2nc(C)c3c(N)ncnc32)cc(Cl)c(C)c1C1CN(C(C)=O)C1 (centres unmarked) [Example 2, 1-{1-[3-(1-Acetylazetidin-3-yl)-5-chloro-2-methoxy-4-methylphenyl]ethyl}-3-methyl-1H-pyrazolo[3,4-d]pyrimidin-4-amine trifluoroacetate] |
